# In patent publication US20250066411A1, “GL[…] FOR L-SIGN” (priority 2022, published 2025):
# What was measured:
# Assay type in all cases: binding
# L-SIGN ECD [1] = molecular target: T1, L-SIGN ECD (Homo sapiens, UniProt Q9H2X3); test: SPR competition experiments on a sensorchip functionalized with SARS-CoV-2 Spike protein, L-SIGN ECD co-injected; conditions: for IC50: 20 μM L-SIGN ECD co-injected, Spike HexaPro surface, 25° C., read-out: IC50 (inhibition of L-SIGN); for selectivity for L-SIGN over DC-SIGN: SPR competition, L-SIGN vs DC-SIGN ECD; for inhibits the L-SIGN receptor better than D-mannose: relative to D-mannose IC50
# T1 construct: towards the extra cellular domain (ECD) of the DC-SIGN and L-SIGN receptors
# T1 sequence (Q9H2X3 71-399 limits assumed): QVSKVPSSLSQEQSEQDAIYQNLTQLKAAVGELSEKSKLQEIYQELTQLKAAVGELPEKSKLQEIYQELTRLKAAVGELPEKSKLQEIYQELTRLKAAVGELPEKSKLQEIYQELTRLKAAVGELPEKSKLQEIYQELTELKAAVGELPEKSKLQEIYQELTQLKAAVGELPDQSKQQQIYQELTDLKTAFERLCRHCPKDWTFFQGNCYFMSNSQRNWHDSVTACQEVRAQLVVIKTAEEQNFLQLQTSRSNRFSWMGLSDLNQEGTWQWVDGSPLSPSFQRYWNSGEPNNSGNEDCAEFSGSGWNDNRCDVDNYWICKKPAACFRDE
# L-SIGN ECD [2] = molecular target: T1, L-SIGN ECD; test: Isothermal Titration Calorimetry (ITC) with L-SIGN ECD
# Experimental: The interaction of compound 106a with the L-SIGN receptor was also confirmed by Isothermal Titration Calorimetry (ITC) experiments (FIG. 2).
# These experiments were carried out on a MicroCal PEAQ-ITC apparatus, at 25° C., in buffer A (25 mM Tris pH 8, 150 mM NaCl, 4 mM CaCl2). L-SIGN ECD (172 μM) was titrated with consecutive 2 μL injections of a 2 mM solution of compound 106a in Calcium buffer (30 μL of 20 mM compound 106a+270 μL of Calcium buffer).
# The analysis was performed in triplicate and the graphs shown in FIG. 2 (which report, respectively, Differential Power (DP) vs. time, and ΔH vs. molar ratio) are representative of the average of the three experiments.
# L-SIGN ECD [3] = molecular target: T1, L-SIGN ECD; test: SPR direct interaction experiments on oriented immobilized biotinylated ECD; conditions: read-out: apparent Kd for L-SIGN; Steady State Affinity model, ligands 2 nM to 500 nM
# Experimental: For this experiment the extracellular domain (ECD) of DC-SIGN and L-SIGN were immobilized onto the SPR surface in an oriented manner, by their N-terminus, taking advantage of biotine/streptavidin interaction. To generate DC/L SIGN specifically biotinylated at the N-terminus, 3 glycine residues at the N-terminus of the protein were added by site directed mutagenesis in order to allow a sortaging procedure. The biotinylated versions of DC/L-SIGN ECDs (Biot-ECDs) were prepared by sortaging as described in Achilli, S., Monteiro, J. T., Serna, S., Mayer-Lambertz, S., Thépaut, M., Le Roy, A., Ebel, C., Reichardt, N.-C., Lepenies, B., Fieschi, F., and Vives, C. (2020) […], Artificial Tetrameric Lectins: A Tool to Screen Ligand and Pathogen Interactions. IJMS 21, 1-19 using a commercial synthetic biotinylated peptide,
# To generate the oriented SPR surfaces, the flow cells were functionalized with Streptavidin in 10 mM Acetate buffer pH 4 and the remaining activated groups were blocked with 1 M ethanolamine pH 8. After blocking, the flow cells were treated with 100 μL of 10 mM HCl to remove non-specifically bound proteins and 100 μL of 50 mM NaOH/1M NaCl to expose surface to regeneration protocol. Priming of the surface was done using the running buffer (25 mM Tris pH 8, 150 mM NaCl, 4 mM CaCl2), 0.05% Tween). […] Surfaces are ready for interaction. […]
Compound,IC50 (L-SIGN ECD [1]),selectivity for L-SIGN over DC-SIGN (L-SIGN ECD [1]),other results
"NCc1cn(C2C(OCCCl)OC(CO)C(O)C2O)nn1 (centres unmarked) [Compound 103, reference compound]",278 µM,,
N=C(N)NCc1cn([C@H]2C(OCCCl)OC(CO)[C@@H](O)[C@@H]2O)nn1 (some centres unmarked) [Compound 106a],24 µM,up to 58 fold,"Kd (L-SIGN ECD [2]): 12.8 ± 1.5 µM; enthalpy contribution (ΔH) of the interaction (L-SIGN ECD [2]; ITC): very favorable; stoichiometry of interaction between ligand and L-SIGN receptor (L-SIGN ECD [2]; ITC): 1,13; inhibits the L-SIGN receptor better than D-mannose (L-SIGN ECD [1]): 80 times; inhibits the L-SIGN receptor better than compound 103 (L-SIGN ECD [1]; relative to compound 103 IC50): 11 times"
OCC1O[C@H](OCCCl)C(n2cc(CNc3nc4ccccc4[nH]3)nn2)C(O)[C@@H]1O (some centres unmarked) [Compound 113],48 µM,more selective against DC-SIGN,
OCC1O[C@H](OCCCl)C(n2cc(CNc3ncc[nH]3)nn2)C(O)[C@@H]1O (some centres unmarked) [Compound 115],15 µM,up to 75 fold,
OCC1O[C@H](OCCCl)C(n2cc(CNc3ncc[nH]3)nn2)C(O)[C@@H]1O (some centres unmarked) [Compound 119],18 µM,,inhibits the L-SIGN receptor better than D-mannose (L-SIGN ECD [1]): over two orders of magnitude
N=C(N)NCc1cn(C2C(OCCn3cc(-c4cc(OCCOCCO)c(C#Cc5cc(OCCOCCO)c(C#Cc6cc(OCCOCCO)c(-c7cn(CCOC8OC(CO)C(O)C(O)C8n8cc(CNC(=N)N)nn8)nn7)cc6OCCOCCO)cc5OCCOCCO)cc4OCCOCCO)nn3)OC(CO)C(O)C2O)nn1 (centres unmarked) [Compound 133],,,Kd (L-SIGN ECD [3]): 0.052 µM
N=C(N)NCc1cn(C2C(OCCn3cc(COCCOCCOCCn4cc(-c5cc(OCCOCCO)c(C#Cc6cc(OCCOCCO)c(C#Cc7cc(OCCOCCO)c(-c8cn(CCOCCOCCOCc9cn(CCOC%10OC(CO)C(O)C(O)C%10n%10cc(CNC(=N)N)nn%10)nn9)nn8)cc7OCCOCCO)cc6OCCOCCO)cc5OCCOCCO)nn4)nn3)OC(CO)C(O)C2O)nn1 (centres unmarked) [Compound 135],,,Kd (L-SIGN ECD [3]): 0.025 µM
OCC1O[C@H](OCCCl)C(n2cc(CNC3=NCCCN3)nn2)C(O)[C@@H]1O (some centres unmarked) [Compound 139],12 µM,up to 94 fold,
COc1ccc2[nH]c(NCc3cn(C4C(O)[C@H](O)C(CO)O[C@@H]4OCCCl)nn3)nc2c1 (some centres unmarked) [Compound 146],52 µM,,
"O=C[C@@H](O)[C@@H](O)[C@H](O)[C@H](O)CO [D-mannose, reference compound]",1940 µM,,
